Key:
UGT85A1 = molecular target: T1, UGT85A1 (Arabidopsis thaliana, UniProt Q9SK82); assay: in vitro glucosylation by purified enzyme, HPLC ([…] conversion); assay type: biochemical
T1 construct: N-terminal His6-tagged
T1 sequence (Q9SK82 1-489): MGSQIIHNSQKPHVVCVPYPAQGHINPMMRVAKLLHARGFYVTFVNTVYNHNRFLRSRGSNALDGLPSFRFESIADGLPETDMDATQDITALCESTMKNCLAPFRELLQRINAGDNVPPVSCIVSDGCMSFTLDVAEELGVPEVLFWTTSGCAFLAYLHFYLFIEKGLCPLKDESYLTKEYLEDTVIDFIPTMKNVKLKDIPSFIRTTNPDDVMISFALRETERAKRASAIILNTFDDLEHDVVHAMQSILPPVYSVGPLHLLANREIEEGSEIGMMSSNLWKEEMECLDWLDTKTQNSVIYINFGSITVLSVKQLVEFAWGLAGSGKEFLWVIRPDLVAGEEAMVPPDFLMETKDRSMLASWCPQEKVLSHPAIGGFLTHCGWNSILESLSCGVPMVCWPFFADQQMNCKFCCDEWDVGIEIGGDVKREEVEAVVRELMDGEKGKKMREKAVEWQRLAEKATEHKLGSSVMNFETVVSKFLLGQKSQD

[1] = molecular target: T2, Prolyl endopeptidase (PEP) (Elizabethkingia meningoseptica, UniProt P27028); assay: chromogenic PEP assay, inhibition rate at […]; assay type: biochemical
T2 construct: gene f1pep1
T2 sequence (P27028 21-705): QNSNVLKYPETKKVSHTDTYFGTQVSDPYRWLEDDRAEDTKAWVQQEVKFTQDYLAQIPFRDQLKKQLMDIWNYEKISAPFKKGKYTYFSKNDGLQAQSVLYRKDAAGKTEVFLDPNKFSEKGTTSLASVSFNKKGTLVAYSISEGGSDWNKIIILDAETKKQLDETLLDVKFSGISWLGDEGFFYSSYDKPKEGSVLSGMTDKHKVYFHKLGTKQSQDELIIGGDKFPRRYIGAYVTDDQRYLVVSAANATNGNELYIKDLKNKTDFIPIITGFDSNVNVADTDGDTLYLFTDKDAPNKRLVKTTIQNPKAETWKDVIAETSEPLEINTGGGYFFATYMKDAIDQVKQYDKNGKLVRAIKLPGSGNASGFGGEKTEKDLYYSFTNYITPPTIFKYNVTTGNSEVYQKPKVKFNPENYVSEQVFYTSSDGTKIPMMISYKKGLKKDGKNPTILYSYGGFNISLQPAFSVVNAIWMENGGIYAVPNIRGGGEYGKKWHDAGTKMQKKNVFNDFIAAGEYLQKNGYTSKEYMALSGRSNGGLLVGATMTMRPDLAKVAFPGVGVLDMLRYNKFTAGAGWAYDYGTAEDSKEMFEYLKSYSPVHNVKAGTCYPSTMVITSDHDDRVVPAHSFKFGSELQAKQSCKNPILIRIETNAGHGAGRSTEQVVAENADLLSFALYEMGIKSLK

Structure (SMILES)	in vitro glucosylation by purified enzyme, HPLC (98.9% conversion) (UGT85A1)	inhibition at 500 µM [1] [%]
OCc1ccc(O)cc1 [compound 1, p-hydroxybenzyl alcohol]	UGT85A1 showed higher selectivity than RrUGT17, producing only the alcoholic glucoside 1b	
OC[C@H]1O[C@@H](OCc2cccc(O)c2)[C@H](O)[C@@H](O)[C@@H]1O [12b]		> 50
CC(O[C@@H]1O[C@H](CO)[C@@H](O)[C@H](O)[C@H]1O)c1ccc(O)cc1 (stereo partly shown) [13b]		> 50
CC(O[C@@H]1O[C@H](CO)[C@@H](O)[C@H](O)[C@H]1O)c1cccc(O)c1 (stereo partly shown) [14b]		> 50
